Results reported in US20130202629A1, “USES OF PHOSPHOLIPID CONJUGATES OF SYNTHETIC TLR7 AGONISTS” (The Regents of the University of California, priority 2010, published 2013).
“And” between values parts separate entries of the source, which are not always exact repeats. Identical values can stand only once. “Also recorded” adds a separate entry of the source.

Tests used:
[1] = Solubility; assay type: physicochemical; settings: aqueous solution / suitable solvents for testing
[2] = biological target: T1, TLR7 (Homo sapiens, UniProt Q9NYK1); test: Cytokine induction (IL-6, IFNalpha1; Luminex) in human PBMC; assay type: cell-based; settings: 18 hours, IL-6 (FIG. 3A)
T1 sequence (Q9NYK1 27-1049): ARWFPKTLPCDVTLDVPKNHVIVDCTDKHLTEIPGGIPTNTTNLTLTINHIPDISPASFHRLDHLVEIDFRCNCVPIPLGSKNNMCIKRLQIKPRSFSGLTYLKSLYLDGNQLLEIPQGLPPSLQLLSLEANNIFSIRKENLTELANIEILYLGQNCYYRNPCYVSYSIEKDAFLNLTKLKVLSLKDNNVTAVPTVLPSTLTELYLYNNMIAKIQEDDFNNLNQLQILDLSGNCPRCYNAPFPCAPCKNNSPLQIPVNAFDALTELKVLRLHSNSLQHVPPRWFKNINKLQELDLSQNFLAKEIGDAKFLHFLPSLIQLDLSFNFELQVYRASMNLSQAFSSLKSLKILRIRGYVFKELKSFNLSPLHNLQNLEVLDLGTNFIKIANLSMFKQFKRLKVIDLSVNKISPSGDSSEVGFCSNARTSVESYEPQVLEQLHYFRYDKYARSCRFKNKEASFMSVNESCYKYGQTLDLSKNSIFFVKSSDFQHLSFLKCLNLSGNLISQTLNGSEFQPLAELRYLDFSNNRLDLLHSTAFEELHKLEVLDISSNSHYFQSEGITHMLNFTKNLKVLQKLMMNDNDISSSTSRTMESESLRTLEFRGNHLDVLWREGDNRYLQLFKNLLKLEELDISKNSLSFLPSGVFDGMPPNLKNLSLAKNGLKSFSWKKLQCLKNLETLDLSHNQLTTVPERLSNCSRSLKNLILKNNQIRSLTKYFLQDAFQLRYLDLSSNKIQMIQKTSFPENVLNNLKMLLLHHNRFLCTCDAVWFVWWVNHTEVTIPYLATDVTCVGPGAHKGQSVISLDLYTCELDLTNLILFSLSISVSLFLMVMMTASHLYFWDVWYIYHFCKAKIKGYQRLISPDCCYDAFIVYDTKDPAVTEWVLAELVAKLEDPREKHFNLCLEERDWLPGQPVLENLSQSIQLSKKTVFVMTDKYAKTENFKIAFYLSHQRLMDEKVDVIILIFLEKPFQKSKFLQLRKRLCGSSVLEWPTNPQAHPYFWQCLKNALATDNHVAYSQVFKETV

[3] = biological target: T2, TLR7 (Mus musculus, UniProt P58681); test: In vitro cytokine induction (TNF-alpha, IL-6, IL-12; ELISA) in murine macrophages: RAW264.7 cells and BMDM; assay type: cell-based; settings: RAW264.7 and BMDM, 18 hours; b281 also in vivo
T2 construct: BMDM were prepared from C57BL/6 and TLR7 deficient mice; endogenous in cells; host or cells: RAW264.7 (ATCC); bone marrow derived macrophages from C57BL/6 mice
T2 sequence (P58681 27-1050): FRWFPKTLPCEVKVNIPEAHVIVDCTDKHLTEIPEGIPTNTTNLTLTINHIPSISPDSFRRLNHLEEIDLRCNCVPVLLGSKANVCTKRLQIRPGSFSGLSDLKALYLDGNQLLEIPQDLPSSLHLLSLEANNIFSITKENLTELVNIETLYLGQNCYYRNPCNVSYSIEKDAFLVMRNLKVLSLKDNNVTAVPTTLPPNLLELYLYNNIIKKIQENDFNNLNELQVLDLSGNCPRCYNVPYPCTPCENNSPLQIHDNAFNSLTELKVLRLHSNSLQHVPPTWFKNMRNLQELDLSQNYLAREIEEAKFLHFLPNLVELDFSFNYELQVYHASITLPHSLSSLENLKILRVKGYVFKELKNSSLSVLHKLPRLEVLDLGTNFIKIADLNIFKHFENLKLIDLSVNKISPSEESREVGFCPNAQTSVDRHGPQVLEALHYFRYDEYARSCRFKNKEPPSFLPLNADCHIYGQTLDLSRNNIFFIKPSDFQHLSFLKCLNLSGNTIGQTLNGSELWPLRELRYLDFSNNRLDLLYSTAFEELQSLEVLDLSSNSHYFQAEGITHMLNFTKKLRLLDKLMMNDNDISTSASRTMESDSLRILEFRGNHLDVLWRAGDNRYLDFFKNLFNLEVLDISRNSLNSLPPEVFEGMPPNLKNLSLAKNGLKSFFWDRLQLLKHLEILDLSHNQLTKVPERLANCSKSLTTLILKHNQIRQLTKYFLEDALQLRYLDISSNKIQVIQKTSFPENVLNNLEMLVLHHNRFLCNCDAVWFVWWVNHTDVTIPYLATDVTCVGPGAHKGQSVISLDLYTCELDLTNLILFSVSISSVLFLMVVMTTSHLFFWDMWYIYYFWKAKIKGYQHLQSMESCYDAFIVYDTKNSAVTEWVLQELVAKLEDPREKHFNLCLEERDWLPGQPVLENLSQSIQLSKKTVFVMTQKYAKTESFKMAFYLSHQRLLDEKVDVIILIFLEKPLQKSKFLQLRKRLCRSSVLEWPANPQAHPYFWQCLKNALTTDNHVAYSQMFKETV
Protocol: In vitro measurements of cytokine induction were performed using the mouse leukemic monocyte macrophage cell line, RAW264.7. […] BMDM were prepared from C57BL/6 and TLR7 deficient mice as described in Wu, C. C et al., “Immunotherapeutic activity of a conjugate of a Toll-like receptor 7 ligand”, Proc. Natl. Acad. Sci. USA, 104:3990 (2007).
In general, RAW264.7 cells or BMDM were incubated with various concentrations of conjugates for 18 hours at 37° C., 5% CO2 and culture supernatants were collected. The levels of cytokines (IL-6, IL-12 or TNF-α in the supernatants were determined by ELISA (BD Biosciences Pharmingen, La Jolla, Calif.) (Cho, H. J et al., “Immunostimulatory DNA-based vaccines induce cytotoxic lymphocyte activity by a T-helper cell-independent mechanism” [see comments], Nat. Biotechnol., 18:509 (2000)), and the results presented in FIGS. 2A-D. Data are mean±SEM of triplicates and are representative of three independent experiments. Minimum detection levels of these cytokines were 15 pg/mL.
TNFα levels were measured (see FIG. 2A) by incubating approximately 1×10^6/mL RAW 264.7 cells with the various conjugates or controls, as described above. IL-6 and IL-12 levels were measured (see FIGS. 2B-D) by incubating 0.5×10^6/mL BMDM with the various conjugates or controls, as described above. […]

[4] = test system: TLR7; test: IL-12 and IL-6 induction in BMDM from wild type and TLR7 deficient mice; assay type: cell-based, mouse; settings: BMDM from TLR7 deficient (TLR7-KO) mice
[5] = test system: C57BL/6 mice; test: In vivo kinetics of serum pro-inflammatory cytokine induction after intravenous injection; design: species or system mouse; settings: i.v., 200 nmol per animal
Protocol: The mice were intravenously injected with TLR7 agonists and their conjugates (40 nmol compound (4a) or 200 nmol SM and compounds (6), (8), or (9) per mouse). Blood samples were collected 2, 4, 6, 24 or 48 hours after injections. Sera were separated and kept at −20° C. until use. The levels of cytokines (e.g. IL-6 and TNF-α in the sera were measured by Luminex bead microassay, and the results presented in FIGS. 4A-B. Data are mean±SEM of five mice and are representative of two independent experiments. The minimum detection levels of IL-6 and TNF-α are 5 pg/mL and 10 pg/mL, respectively.
Cytokine induction by compounds (4a), (6), and (9), were sustained for up to 6 hours.

[6] = test system: mice; settings: cited from earlier work

Compound: COCCOc1nc(N)c2nc(O)n(Cc3ccc(C(=O)NCCOCCOCCOCCOCCOCCOCCOCCOCCOCCOCCn4cc(CCC(=O)O)nn4)cc3)c2n1 [Compound 8, 3-(1-(1-(4-((6-amino-8-hydroxy-2-(2-methoxyethoxy)-9H-purin-9-yl)methyl)phenyl)-1-oxo-5,8,11,14,17,20,23,26,29,32-decaoxa-2-azatetratriacontan-34-yl)-1H-1,2,3-triazol-4-yl)propanoic acid]
- solubility, in words [1]: solubility improves dramatically
- order of TLR7 conjugate potency [2]: (4b)>(6)>(9)>/=SM>(8) and 4b>6>9>SM=8
- potency of cytokine induction compared to unconjugated TLR7 (SM), in words [3]: less potency compared to the unconjugated TLR7 (SM); also recorded: attenuated
- IL-12 and IL-6 induction in TLR7 deficient BMDM [4]: little or no IL-12 and IL-6
- serum IL-6 induction [5]: only a low level of IL-6
- serum TNFα induction ([5]; any point post injection): no significant induction of TNFα

Compound: COCCOc1nc(N)c2nc(O)n(Cc3ccccc3)c2n1 [SM, 9-benzyl-8-hydroxy-2-(2-methoxyethoxy) adenine, reference compound]
- anorexic effects and hypothermia in mice ([6]; mouse, in vivo): can induce anorexic effects and hypothermia
- minimum dose that induced the anorectic reaction ([6]; mucosal administration): 50 nmoles per mice
- solubility, in words [1]: insoluble in aqueous solution
- IL-12 and IL-6 induction in TLR7 deficient BMDM [4]: little or no IL-12 and IL-6
- course of serum cytokine levels after injection, in words [5]: declined rapidly after 2 hours
